The values that follow come from US20140057953A1, “BIARYL DERIVATIVES AS SELECTIVE 17BETA-HYDROXYSTEROID DEHYDROGENASE TYPE 2 INHIBITORS” (priority 2011, published 2014).

One assay has as its target T1, 17β-HSD2 (Homo sapiens, UniProt P37059).
T1 sequence (P37059 1-387): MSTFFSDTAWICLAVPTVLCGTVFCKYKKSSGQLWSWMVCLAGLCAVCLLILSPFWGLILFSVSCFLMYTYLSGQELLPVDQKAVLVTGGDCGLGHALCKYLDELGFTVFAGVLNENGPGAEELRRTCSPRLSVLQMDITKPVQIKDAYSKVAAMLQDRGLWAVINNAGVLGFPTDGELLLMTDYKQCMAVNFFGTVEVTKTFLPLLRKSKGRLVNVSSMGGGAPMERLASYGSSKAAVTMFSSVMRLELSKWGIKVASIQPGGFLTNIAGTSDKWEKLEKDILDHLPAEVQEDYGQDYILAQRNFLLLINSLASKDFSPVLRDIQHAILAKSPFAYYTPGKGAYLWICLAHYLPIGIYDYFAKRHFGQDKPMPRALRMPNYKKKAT
In words: Inhibition of 17β-HSD2 in cell-free assay. Particulars: human placenta, microsomal fraction, substrate E2 500 nM, cofactor NAD+ 1500 μM; for inhibition at 1 µM / % inhibition 17β-HSD2: inhibitor concentration 1 μM. Set-up: 17β-HSD2 was obtained directly from the microsomal fraction; from tissue; host or cells: human placenta, microsomal fraction. It counts as biochemical. As for the experimental part: (§1) Fresh human placenta was homogenized. Cytosolic and microsomal fractions were separated by centrifugation at 1000 g, 10000 g and 150000 g. 17β-HSD2 was obtained directly from the microsomal fraction. For the partial purification of 17β-HSD1, the cytosolic fraction was precipitated with ammonium sulfate. Aliquots containing 17β-HSD1 or 17β-HSD2 were stored frozen.
Inhibitor stock solutions were prepared in DMSO. Final concentration of DMSO was adjusted to 1% in all samples. The enzymatic reaction was started by addition of a mixture of unlabelled- and [^3H]-E2 (final concentration: 500 nM, 0.11 μCi). After 20 min at 37° C., the incubation was stopped with HgCl2 and the mixture was extracted with ether. After evaporation, the steroids were dissolved in acetonitrile. E1 and E2 were separated using acetonitrile/water (45:55) as mobile phase in a C18 RP chromatography column (Nucleodur C18, 3 μm, Macherey-Nagel, Duren) connected to a HPLC-system (Agilent 1100 Series, Agilent Technologies, Waldbronn). Detection and quantification of the steroids were performed using a radioflow detector (Berthold Technologies, Bad Wildbad). The conversion rate was calculated according to the following equation: […]

In a further assay the target is T2, 17β-HSD1 (Homo sapiens, UniProt P14061).
T2 construct: For the partial purification of 17β-HSD1, the cytosolic fraction was precipitated with ammonium sulfate; from tissue; host or cells: human placenta, cytosolic fraction
T2 sequence (P14061 1-328): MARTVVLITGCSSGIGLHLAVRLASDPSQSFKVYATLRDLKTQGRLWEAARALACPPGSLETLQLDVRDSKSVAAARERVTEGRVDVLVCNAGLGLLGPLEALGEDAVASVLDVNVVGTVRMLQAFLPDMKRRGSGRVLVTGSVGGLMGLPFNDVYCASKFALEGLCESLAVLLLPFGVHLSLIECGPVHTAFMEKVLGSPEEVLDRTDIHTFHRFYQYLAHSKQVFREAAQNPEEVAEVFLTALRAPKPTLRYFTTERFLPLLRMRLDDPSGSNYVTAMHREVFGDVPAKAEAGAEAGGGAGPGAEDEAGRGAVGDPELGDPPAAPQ
Kind of assay: Inhibition of 17β-HSD1 in cell-free assay. Type of assay: biochemical. Particulars: human placenta, cytosolic fraction, substrate E1 500 nM, cofactor NADH 500 μM; for % inhibition 17β-HSD1 / inhibition at 1 µM: inhibitor concentration 1 μM. The protocol:
as §1
The 17β-HSD1 inhibition assay was performed similarly to the 17β-HSD2 test. The cytosolic fraction was incubated with NADH [500 μM], test compound and a mixture of unlabelled- and [^3H]-E1 (final concentration: 500 nM, 0.15 μCi) for 10 min at 37° C. Further treatment of the samples and HPLC separation was carried out as mentioned above for 17β-HSD2.

For the next assay, the target named is T3, ERα (Homo sapiens, UniProt P03372).
T3 sequence (P03372 1-595): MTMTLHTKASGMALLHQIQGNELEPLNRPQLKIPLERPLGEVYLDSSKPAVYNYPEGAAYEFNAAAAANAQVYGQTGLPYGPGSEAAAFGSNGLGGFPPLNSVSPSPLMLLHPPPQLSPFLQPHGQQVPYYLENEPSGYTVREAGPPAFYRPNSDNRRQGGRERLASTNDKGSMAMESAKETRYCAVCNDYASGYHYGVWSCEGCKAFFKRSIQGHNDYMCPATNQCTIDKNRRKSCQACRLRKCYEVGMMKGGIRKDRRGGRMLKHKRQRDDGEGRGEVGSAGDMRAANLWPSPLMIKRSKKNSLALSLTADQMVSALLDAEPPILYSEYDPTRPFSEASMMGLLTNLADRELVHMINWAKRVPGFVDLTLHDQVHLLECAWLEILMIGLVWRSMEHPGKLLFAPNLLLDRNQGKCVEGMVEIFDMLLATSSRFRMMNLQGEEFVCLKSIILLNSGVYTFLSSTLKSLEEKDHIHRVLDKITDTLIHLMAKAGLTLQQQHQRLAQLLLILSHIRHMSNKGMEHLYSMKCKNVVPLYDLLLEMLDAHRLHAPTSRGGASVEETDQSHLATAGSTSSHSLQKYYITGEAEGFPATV
Kind of assay: ER affinity assay (ERα), [3H]-E2 displacement. Particulars: Relative Binding Affinity, E2 = 100%; recombinant human protein. As for the experimental part: (§2) The binding affinity of selected compounds to the ERα and ERβ was determined according to Zimmermann et al. (Zimmermann, J. et al., 3. Steroid Biochem. Mol. Biol., 94:57-66 (2005)) using recombinant human proteins. Briefly, 0.25 μM of ERα or ERβ, respectively, were incubated with [^3H]-E2 (10 nM) and test compound for 1 h at room temperature. The potential inhibitors were dissolved in DMSO (5% final concentration). Evaluation of non-specific-binding was performed with diethylstilbestrol (10 μM). After incubation, ligand-receptor complexes were selectively bound to hydroxyapatite (5 g/60 ml TE-buffer). The formed complex was separated, washed and resuspended in ethanol. For radiodetection, scintillator cocktail (Quickszint 212, Zinsser Analytic, Frankfurt) was added and the samples were measured in a liquid scintillation counter (Rack Beta Primo 1209, Wallac, Turku). […] The compound concentration to displace 50% of the receptor bound [^3H]-E2 were determined. Unlabelled E2 was used as a reference. For determination of the relative binding affinity (RBA) the ratio was calculated according to the following equation: […]
(§3) After the assay was established and validated a modification was made to increase throughput. […] Results were reported as RBA ranges.

In the next assay the target is ERβ (Homo sapiens, UniProt Q92731). In words: ER affinity assay (ERβ), [3H]-E2 displacement. Particulars: Relative Binding Affinity, E2 = 100%; recombinant human protein. As for the experimental part:
as §2, §3

Chain of ERβ (Q92731 whole entry): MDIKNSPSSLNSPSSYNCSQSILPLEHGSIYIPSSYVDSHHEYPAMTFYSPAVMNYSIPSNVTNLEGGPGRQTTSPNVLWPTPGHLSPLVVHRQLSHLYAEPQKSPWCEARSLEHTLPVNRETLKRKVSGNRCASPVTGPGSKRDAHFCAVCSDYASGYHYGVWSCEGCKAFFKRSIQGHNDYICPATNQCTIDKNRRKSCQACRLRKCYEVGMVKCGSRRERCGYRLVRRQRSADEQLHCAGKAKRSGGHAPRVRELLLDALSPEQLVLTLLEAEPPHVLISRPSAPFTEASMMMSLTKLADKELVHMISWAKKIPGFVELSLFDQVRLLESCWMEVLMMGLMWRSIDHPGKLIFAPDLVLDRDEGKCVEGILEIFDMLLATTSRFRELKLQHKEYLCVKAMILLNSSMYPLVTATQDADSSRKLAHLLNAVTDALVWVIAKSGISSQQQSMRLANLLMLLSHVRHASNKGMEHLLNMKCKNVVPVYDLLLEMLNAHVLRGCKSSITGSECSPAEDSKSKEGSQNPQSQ

What is called IC50 is the midpoint of a concentration-inhibition curve. A low value points to greater potency in that assay. Turning to `COc1cccc(CN(C)C(=O)c2ccc(-c3cccc(C)c3)cc2)c1` [compound 3, N-(3-Methoxybenzyl)-N,3′-dimethylbiphenyl-4-carboxamide], the IC50 against 17β-HSD2 was 265 nM; against 17β-HSD1 it was over 100000 nM. The “ERα RBA (%)” value on ERα is recorded as under 0.1%. Besides, at ERβ, the “ERβ RBA (%)” value is given as under 0.1%.

As to `COc1cccc(-c2cccc(C(=O)N(C)c3cccc(OC)c3)c2)c1` [compound 11, 3′-Methoxy-N-(3-methoxyphenyl)-N-methylbiphenyl-3-carboxamide], the IC50 is 517 nM at 17β-HSD2 and over 60000 nM against 17β-HSD1. For the same compound, the “ERα RBA (%)” value at ERα is on record as under 0.1%. Also, the “ERβ RBA (%)” value at ERβ was under 0.1%.

In general, inhibition refers to the relative decrease from the control value, in per cent. Read a high inhibition as a response far below the control. As for `COc1cccc(CCN(C)C(=O)c2ccc(-c3cccc(OC)c3)s2)c1` [compound 17, N-(3-Methoxyphenethyl)-5-(3-methoxyphenyl)-N-methylthiophene-2-carboxamide], the inhibition at 1 µM at 17β-HSD2 worked out at 31%. For the same compound, on 17β-HSD1, the “% inhibition 17β-HSD1” value is reported as “n.i.^e”.

For the compound `CN(CCc1cccc(O)c1)C(=O)c1ccc(-c2cccc(O)c2)s1` [compound 18, N-(3-Hydroxyphenethyl)-5-(3-hydroxyphenyl)-N-methylthiophene-2-carboxamide], the inhibition at 1 µM is 37% on 17β-HSD2 and 23% at 17β-HSD1.

For `COc1cccc(CCN(C)C(=O)c2ccc(-c3ccccc3)s2)c1` [compound 19, N-(3-Methoxyphenethyl)-N-methyl-5-phenylthiophene-2-carboxamide], the inhibition at 1 µM against 17β-HSD2 stood at 18%; against 17β-HSD1 it was 11%.

Consider `CN(CCc1cccc(O)c1)C(=O)c1ccc(-c2ccccc2)s1` [compound 20, N-(3-Hydroxyphenethyl)-N-methyl-5-phenylthiophene-2-carboxamide], for which the inhibition at 1 µM at 17β-HSD2 is 11%. Moreover, the “% inhibition 17β-HSD1” value at 17β-HSD1 is recorded as “n.i.^e”.

Regarding `COc1cccc(CCN(C)C(=O)c2ccc(-c3cccc(F)c3)s2)c1` [compound 21, 5-(3-Fluorophenyl)-N-(3-methoxyphenethyl)-N-methylthiophene-2-carboxamide], the “% inhibition 17β-HSD2” value at 17β-HSD2 is given as “n.i.^e”. Moreover, the “% inhibition 17β-HSD1” value on 17β-HSD1 is “n.i.^e”.

Take `CN(CCc1cccc(O)c1)C(=O)c1ccc(-c2cccc(F)c2)s1` [compound 22, 5-(3-Fluorophenyl)-N-(3-hydroxyphenethyl)-N-methylthiophene-2-carboxamide]: the inhibition at 1 µM worked out at 17% on 17β-HSD2 and 12% on 17β-HSD1.

As for `COc1cccc(CN(C)C(=O)c2ccc(-c3cccc(OC)c3)s2)c1` [compound 23, N-(3-Methoxybenzyl)-5-(3-methoxyphenyl)-N-methylthiophene-2-carboxamide], the IC50 on 17β-HSD2 was 370 nM; at 17β-HSD1, over 100000 nM. Besides, at ERα, the “ERα RBA (%)” value is reported as under 0.1%. Moreover, the “ERβ RBA (%)” value at ERβ is under 0.1%.

On to `CN(Cc1cccc(O)c1)C(=O)c1ccc(-c2cccc(O)c2)s1` [compound 24, N-(3-Hydroxybenzyl)-5-(3-hydroxyphenyl)-N-methylthiophene-2-carboxamide], for which the IC50 against 17β-HSD2 is 394 nM; against 17β-HSD1 it was over 5450 nM. The “ERα RBA (%)” value on ERα is on record as under 0.1%. Moreover, the “ERβ RBA (%)” value on ERβ is given as under 0.1%.

Consider `CN(Cc1cccc(O)c1)C(=O)c1ccc(-c2ccc(O)cc2)s1` [compound 26, N-(3-Hydroxybenzyl)-5-(4-hydroxyphenyl)-N-methylthiophene-2-carboxamide], for which the IC50 against 17β-HSD2 amounted to 335 nM; at 17β-HSD1, 5100 nM. Also, the “ERα RBA (%)” value at ERα is reported as under 0.1%. For the same compound, the “ERβ RBA (%)” value on ERβ is recorded as under 0.1%.

On to `COc1cccc(CN(C)C(=O)c2ccc(-c3ccccc3OC)s2)c1` [compound 27, N-(3-Methoxybenzyl)-5-(2-methoxyphenyl)-N-methylthiophene-2-carboxamide], for which, at 17β-HSD2, the inhibition at 1 µM was determined as 48%. In addition, at 17β-HSD1, the “% inhibition 17β-HSD1” value is “n.i.^e”.

Consider `COc1cccc(CN(C)C(=O)c2ccc(-c3ccc(C#N)cc3)s2)c1` [compound 31, 5-(4-Cyanophenyl)-N-(3-methoxybenzyl)-N-methylthiophene-2-carboxamide], for which the “% inhibition 17β-HSD2” value on 17β-HSD2 was “n.i.^e”. Moreover, the “% inhibition 17β-HSD1” value on 17β-HSD1 is “n.i.^e”.

Take `CN(Cc1cccc(O)c1)C(=O)c1ccc(-c2cccc(F)c2)s1` [compound 41, 5-(3-Fluorophenyl)-N-(3-hydroxybenzyl)-N-methylthiophene-2-carboxamide]: the IC50 against 17β-HSD2 turned out to be 326 nM; against 17β-HSD1 it was 3150 nM.

As to `COc1cccc(N(C)C(=O)c2ccc(-c3ccc(OC)cc3OC)s2)c1` [compound 57, 5-(2,4-Dimethoxyphenyl)-N-(3-methoxyphenyl)-N-methylthiophene-2-carboxamide], the IC50 against 17β-HSD2 amounted to 313 nM; on 17β-HSD1, 1930 nM.

For `COc1cccc(N(C)C(=O)c2ccc(-c3ccc(F)c(OC)c3)s2)c1` [compound 62, 5-(4-Fluoro-3-methoxyphenyl)-N-(3-methoxyphenyl)-N-methylthiophene-2-carboxamide], the half-inhibitory concentration (IC50) was 726 nM against 17β-HSD2 and over 100000 nM against 17β-HSD1.

Turning to `COc1ccc(N(C)C(=O)c2ccc(-c3cccc(OC)c3F)s2)cc1` [compound 73, 5-(2-Fluoro-3-methoxyphenyl)-N-(4-methoxyphenyl)-N-methylthiophene-2-carboxamide], the inhibition at 1 µM at 17β-HSD2 worked out at 49%; against 17β-HSD1, 18%.

`COc1cccc(-c2ccc(C(=O)N(C)c3cccc(-c4ccccc4)c3)s2)c1` [compound 76, N-(Biphenyl-3-yl)-5-(3-methoxyphenyl)-N-methylthiophene-2-carboxamide]: the figures for the IC50 at 17β-HSD2 and at 17β-HSD1 were 137 nM and 1110 nM, respectively.
